Measured values from PubChem BioAssay AID2060340 (Molecular Pharmacology Branch, DTP, NCI, 2025).
Several values for one entry are separate records, joined by “and”; a condition that tells them apart may be missing. Equal entries are not always repeated.

Tested on: 349418-098-R-PDC spheroids, viability, % test/control
Test: Anticancer human tumor 349418-098-R-PDC patient-derived lung adenocarcinoma cell line growth inhibition [IpAb]
Details: spheroids with HUVEC and MSC; for viability, T/C: stronger effect = lower value
Procedure, shortened: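 Spheroids of 60% malignant cells, 25% HUVEC and 15% MSC were exposed to targeted agents combined with ipatasertib or abemaciclib. Doses started at or near clinical Cmax (10 microM when unknown) and fell in half-log steps.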

[1] = curve of first compound, second compound 0.1 µM
[2] = curve of first compound, second compound 0.316 µM
[3] = curve of first compound, second compound 1 µM
[4] = curve of first compound, second compound 3.16 µM
[5] = curve of first compound, second compound 10 µM
[6] = second compound 0.1 µM, first compound 0.0316 µM
[7] = second compound 0.1 µM, first compound 0.1 µM
[8] = second compound 0.316 µM, first compound 0.0316 µM
[9] = second compound 0.316 µM, first compound 0.1 µM
[10] = second compound 1 µM, first compound 0.0316 µM
[11] = second compound 1 µM, first compound 0.1 µM
[12] = second compound 3.16 µM, first compound 0.0316 µM
[13] = second compound 3.16 µM, first compound 0.1 µM
[14] = second compound 10 µM, first compound 0.0316 µM
[15] = second compound 10 µM, first compound 0.1 µM

Compound: Cn1ncc(Cl)c1-c1cc(C(=O)NC(CN)Cc2cccc(F)c2)sc1Cl (configuration not stated)
- viability, T/C (compound 0.0316 µM): 90% and 71.9%
- viability, T/C (compound 0.1 µM): 64.6% and 67%
- viability, T/C (compound 0.316 µM): 43% and 30.5%
- viability, T/C (compound 1 µM): 10.9% and 16.7%
- viability, T/C (compound 3.16 µM): 7.08% and 7.12%
- viability, T/C (compound 10 µM): 0.13% and 0.32%
- IC50 (curve of compound): 0.2 µM and 0.169 µM

Compound: Cn1ncnc1[C@H]1c2n[nH]c(=O)c3cc(F)cc(c23)N[C@@H]1c1ccc(F)cc1 + CC(C)NCC(C(=O)N1CCN(c2ncnc3c2C(C)CC3O)CC1)c1ccc(Cl)cc1
- IC50 [1]: > 0.1 µM
- IC50 [2]: 0.000621 µM
- IC50 [3]: < 0.000316 µM
- IC50 [4]: < 0.000316 µM
- IC50 [5]: < 0.000316 µM
- viability, T/C (second compound 0.1 µM, first compound 0.000316 µM): 82.5%
- viability, T/C (second compound 0.1 µM, first compound 0.001 µM): 80.5%
- viability, T/C (second compound 0.1 µM, first compound 0.00316 µM): 77.3%
- viability, T/C (second compound 0.1 µM, first compound 0.01 µM): 70%
- viability, T/C [6]: 68.7%
- viability, T/C [7]: 76.7%
- viability, T/C (second compound 0.316 µM, first compound 0.000316 µM): 52.6%
- viability, T/C (second compound 0.316 µM, first compound 0.001 µM): 48.4%
- viability, T/C (second compound 0.316 µM, first compound 0.00316 µM): 42.8%
- viability, T/C (second compound 0.316 µM, first compound 0.01 µM): 46.8%
- viability, T/C [8]: 41.7%
- viability, T/C [9]: 37%
- viability, T/C (second compound 1 µM, first compound 0.000316 µM): 26.4%
- viability, T/C (second compound 1 µM, first compound 0.001 µM): 24.1%
- viability, T/C (second compound 1 µM, first compound 0.00316 µM): 18.9%
- viability, T/C (second compound 1 µM, first compound 0.01 µM): 16.7%
- viability, T/C [10]: 17.2%
- viability, T/C [11]: 17.1%
- viability, T/C (second compound 3.16 µM, first compound 0.000316 µM): 13.8%
- viability, T/C (second compound 3.16 µM, first compound 0.001 µM): 15.8%
- viability, T/C (second compound 3.16 µM, first compound 0.00316 µM): 11.1%
- viability, T/C (second compound 3.16 µM, first compound 0.01 µM): 10.2%
- viability, T/C [12]: 9.16%
- viability, T/C [13]: 7.75%
- viability, T/C (second compound 10 µM, first compound 0.000316 µM): 9.03%
- viability, T/C (second compound 10 µM, first compound 0.001 µM): 7.63%
- viability, T/C (second compound 10 µM, first compound 0.00316 µM): 6.62%
- viability, T/C (second compound 10 µM, first compound 0.01 µM): 6.38%
- viability, T/C [14]: 5.72%
- viability, T/C [15]: 6.34%

Compound: C=CCn1c(=O)c2cnc(Nc3ccc(N4CCN(C)CC4)cc3)nc2n1-c1cccc(C(C)(C)O)n1 + CC(C)NCC(C(=O)N1CCN(c2ncnc3c2C(C)CC3O)CC1)c1ccc(Cl)cc1
- IC50 [1]: 0.154 µM
- IC50 [2]: 0.0845 µM
- IC50 [3]: < 0.0316 µM
- IC50 [4]: < 0.0316 µM
- IC50 [5]: < 0.0316 µM
- viability, T/C [6]: 96.2%
- viability, T/C [7]: 73%
- viability, T/C (second compound 0.1 µM, first compound 0.316 µM): 11.5%
- viability, T/C (second compound 0.1 µM, first compound 1 µM): 4.54%
- viability, T/C (second compound 0.1 µM, first compound 3.16 µM): 4.88%
- viability, T/C (second compound 0.1 µM, first compound 10 µM): 5.17%
- viability, T/C [8]: 82%
- viability, T/C [9]: 44.5%
- viability, T/C (second compound 0.316 µM, first compound 0.316 µM): 7.25%
- viability, T/C (second compound 0.316 µM, first compound 1 µM): 4.35%
- viability, T/C (second compound 0.316 µM, first compound 3.16 µM): 4.32%
- viability, T/C (second compound 0.316 µM, first compound 10 µM): 4.08%
- viability, T/C [10]: 29.7%
- viability, T/C [11]: 22.2%
- viability, T/C (second compound 1 µM, first compound 0.316 µM): 5.45%
- viability, T/C (second compound 1 µM, first compound 1 µM): 3.39%
- viability, T/C (second compound 1 µM, first compound 3.16 µM): 3.96%
- viability, T/C (second compound 1 µM, first compound 10 µM): 3.54%
- viability, T/C [12]: 15.3%
- viability, T/C [13]: 12.3%
- viability, T/C (second compound 3.16 µM, first compound 0.316 µM): 4.49%
- viability, T/C (second compound 3.16 µM, first compound 1 µM): 2.96%
- viability, T/C (second compound 3.16 µM, first compound 3.16 µM): 3.95%
- viability, T/C (second compound 3.16 µM, first compound 10 µM): 3.35%
- viability, T/C [14]: 9.2%
- viability, T/C [15]: 7.89%
- viability, T/C (second compound 10 µM, first compound 0.316 µM): 4.37%
- viability, T/C (second compound 10 µM, first compound 1 µM): 2.99%
- viability, T/C (second compound 10 µM, first compound 3.16 µM): 3.49%
- viability, T/C (second compound 10 µM, first compound 10 µM): 3.4%

Compound: Cn1cnc2c(F)c(Nc3ccc(Br)cc3Cl)c(C(=O)NOCCO)cc21 + CC(C)NCC(C(=O)N1CCN(c2ncnc3c2C(C)CC3O)CC1)c1ccc(Cl)cc1
- IC50 [1]: < 0.00949 µM
- IC50 [2]: < 0.00949 µM
- IC50 [3]: < 0.00949 µM
- IC50 [4]: < 0.00949 µM
- IC50 [5]: < 0.00949 µM
- viability, T/C (second compound 0.1 µM, first compound 0.00949 µM): 46.7%
- viability, T/C (second compound 0.1 µM, first compound 0.03 µM): 38.4%
- viability, T/C (second compound 0.1 µM, first compound 0.0949 µM): 41.8%
- viability, T/C (second compound 0.1 µM, first compound 0.3 µM): 33.6%
- viability, T/C (second compound 0.1 µM, first compound 0.949 µM): 18.8%
- viability, T/C (second compound 0.1 µM, first compound 3 µM): 8.1%
- viability, T/C (second compound 0.316 µM, first compound 0.00949 µM): 25.7%
- viability, T/C (second compound 0.316 µM, first compound 0.03 µM): 24.6%
- viability, T/C (second compound 0.316 µM, first compound 0.0949 µM): 21.4%
- viability, T/C (second compound 0.316 µM, first compound 0.3 µM): 18.8%
- viability, T/C (second compound 0.316 µM, first compound 0.949 µM): 10.2%
- viability, T/C (second compound 0.316 µM, first compound 3 µM): 7.06%
- viability, T/C (second compound 1 µM, first compound 0.00949 µM): 12.5%
- viability, T/C (second compound 1 µM, first compound 0.03 µM): 10.5%
- viability, T/C (second compound 1 µM, first compound 0.0949 µM): 10.3%
- viability, T/C (second compound 1 µM, first compound 0.3 µM): 7.91%
- viability, T/C (second compound 1 µM, first compound 0.949 µM): 6.83%
- viability, T/C (second compound 1 µM, first compound 3 µM): 5.21%
- viability, T/C (second compound 3.16 µM, first compound 0.00949 µM): 7.25%
- viability, T/C (second compound 3.16 µM, first compound 0.03 µM): 6.51%
- viability, T/C (second compound 3.16 µM, first compound 0.0949 µM): 5.52%
- viability, T/C (second compound 3.16 µM, first compound 0.3 µM): 5.93%
- viability, T/C (second compound 3.16 µM, first compound 0.949 µM): 4.94%
- viability, T/C (second compound 3.16 µM, first compound 3 µM): 3.63%
- viability, T/C (second compound 10 µM, first compound 0.00949 µM): 5.59%
- viability, T/C (second compound 10 µM, first compound 0.03 µM): 5.09%
- viability, T/C (second compound 10 µM, first compound 0.0949 µM): 4.7%
- viability, T/C (second compound 10 µM, first compound 0.3 µM): 3.85%
- viability, T/C (second compound 10 µM, first compound 0.949 µM): 3.8%
- viability, T/C (second compound 10 µM, first compound 3 µM): 3.14%
